# Experimental data reported in patent US20080262080A1, “Allergy Suppressive Agent” (KYUSHU UNIVERSITY, NATIONAL UNIVERSITY CORPORATION, priority 2004, published 2008).
# System: high-affinity IgE receptor (FcεRI)
# Test: FcεRI expression amount on the cell surface of KU812 cells by flow cytometry
# Assay type: cell-based, human
# Conditions: 24 hours
# Method: By using antihuman FcRI antibody (CRA1), the FcεRI expression amount on the surface of human basophil-like cell line KU812 cells was analyzed by flow cytometry. Cells having been incubated by adding DMSO alone were compared with cells having been incubated by adding chrysin. The ratio of overexpression of FcεRI is indicated in percentage. As a basal medium for incubating cells, use was made of RPMI 1640 (Nissui, Japan), to which 100 U/mL of penicillin (Meiji Pharmaceutical Company, Tokyo, Japan), […] of streptomycin (Meiji Pharmaceutical Company, Tokyo, Japan), 12.5 mM of MaHCO3 (Wako Pure Chemical Industries, Osaka, Japan) and 10 mM of HEPES Wako Pure Chemical Industries) had been added. Fetal bovine serum (FBS) purchased form Bio Source International was added to the basal medium to give a concentration of 5 to 10%. Human basophil-like cell line KU812 employed in this experiment was assigned by Japan Collection of Research Bioresources (JCRB) and subcultured and maintained in RPMI 1640 medium comprising 5 to 10% of FBS at 37° C. in 5% CO2 gas under humidification. KU812 cells were incubated in RPMI 1640 medium, to which chrysin dissolved in DMSO had been added, for 0 to 24 hours. A system wherein the cells were incubated in the medium comprising DMSO alone was used as a control. After incubating, the cells were collected and incubated in 5% FBS-PBS, to which 10 μg/mL of antihuman FcεRI α chain mouse monoclonal antibody CRA-1 (Kyokuto Pharmaceutical) had been added, at 4° C. for 40 to 60 min. As a negative control, 10 μg/mL of mouse control IgG2b antibody (DAKO) was used. Then, the cells were washed with ice-cooled PBS once and incubated in 5% FBS-PBS, to which 10 μg/mL of antimouse IgG2b FITC-labeled antibody (Protos Immunoresearch) had been added, at 4° C. for 40 to 60 min. After incubating, the cells were washed with PBS and then resuspended in PBS. The cell suspension thus obtained was analyzed by flow cytometry. In the flow cytometry analysis, FACS Calibur (Becton Sickinson, Sunnyvale, Calif.) was employed. The secondary antibody reaction and the subsequent procedures were conducted in the dark and the cells were preserved on ice while conducting the analysis. KU812 cells (5×10^5 cells/mL) was incubated in 5% bovine fetal serum comprising RPMI 1640 medium, to which chrysin (0, 1, 5 and 10 μM) and apigenin (purchased from Aldrich Chem. Co., St. Louis, Mo.; 0, 1, 5 and 10 μM) had been added, for 24 hours. After incubating, the FcεRI expression level on the cell surface was measured by flow cytometry (experimental procedure: see [0047]).
structure (smiles),measurement,setting,value
O=c1cc(-c2ccc(O)cc2)oc2cc(O)cc(O)c12 [Apigenin],FcεRI expression suppressive rate (%),single agent 1 μM,5.0%
same,FcεRI expression suppressive rate (%),single agent 5 μM,17.1%
same,FcεRI expression suppressive rate (%),single agent 10 μM,36.1%
